# Reference: ChEMBL document CHEMBL1201862, “PubChem BioAssay data set” (2004)
# The source made the active and inactive calls.
# Tests used:
# [1] = Luminescence Cell-Based Dose Retest to Confirm Inhibitors of Cancer Stem Cells. [Related pubchem assays (depositor defined):AID2717, AID2721]; type: functional; conditions: Homo sapiens
# [2] = test system: Vero; assay: cells; type: functional, cell-based; conditions: Chlorocebus sabaeus
# [3] = biological target: T1, Protein RecA (Mycobacterium tuberculosis, UniProt P9WHJ3); assay: Fluorescence Cell-Free Homogeneous Dose Retest to Identify Inhibitors of RecA-Intein Splicing Activity. [Related pubchem assays (depositor defined):AID2097, AID2223, AID489010, AID492950]; type: functional
# T1 sequence (P9WHJ3 whole entry): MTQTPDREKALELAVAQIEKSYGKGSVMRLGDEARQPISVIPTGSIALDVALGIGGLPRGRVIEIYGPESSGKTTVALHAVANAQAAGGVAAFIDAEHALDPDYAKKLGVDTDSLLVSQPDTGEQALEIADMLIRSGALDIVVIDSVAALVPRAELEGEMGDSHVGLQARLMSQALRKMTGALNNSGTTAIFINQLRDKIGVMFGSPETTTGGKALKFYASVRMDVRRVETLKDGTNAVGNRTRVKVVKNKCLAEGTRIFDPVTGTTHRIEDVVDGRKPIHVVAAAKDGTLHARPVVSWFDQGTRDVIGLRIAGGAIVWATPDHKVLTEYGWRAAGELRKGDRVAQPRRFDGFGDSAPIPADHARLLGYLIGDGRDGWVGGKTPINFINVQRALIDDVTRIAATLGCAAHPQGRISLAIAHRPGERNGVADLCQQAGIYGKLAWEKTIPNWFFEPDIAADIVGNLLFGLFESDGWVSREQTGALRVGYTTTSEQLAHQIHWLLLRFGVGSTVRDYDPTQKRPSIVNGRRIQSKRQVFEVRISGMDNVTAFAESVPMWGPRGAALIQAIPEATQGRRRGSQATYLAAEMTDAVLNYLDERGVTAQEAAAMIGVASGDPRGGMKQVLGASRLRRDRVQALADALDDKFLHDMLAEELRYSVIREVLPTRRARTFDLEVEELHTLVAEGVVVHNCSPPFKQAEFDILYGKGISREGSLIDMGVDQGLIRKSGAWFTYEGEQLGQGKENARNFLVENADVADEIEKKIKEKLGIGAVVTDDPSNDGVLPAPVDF
# [4] = biological target: T2, Replicative DNA helicase DnaB (Mycobacterium tuberculosis, UniProt P9WMR3); assay: DnaB intein splicing inhibitors, dose response, biochemical, cell-free fluorescence (AID 449749); type: functional
# T2 sequence (P9WMR3 whole entry): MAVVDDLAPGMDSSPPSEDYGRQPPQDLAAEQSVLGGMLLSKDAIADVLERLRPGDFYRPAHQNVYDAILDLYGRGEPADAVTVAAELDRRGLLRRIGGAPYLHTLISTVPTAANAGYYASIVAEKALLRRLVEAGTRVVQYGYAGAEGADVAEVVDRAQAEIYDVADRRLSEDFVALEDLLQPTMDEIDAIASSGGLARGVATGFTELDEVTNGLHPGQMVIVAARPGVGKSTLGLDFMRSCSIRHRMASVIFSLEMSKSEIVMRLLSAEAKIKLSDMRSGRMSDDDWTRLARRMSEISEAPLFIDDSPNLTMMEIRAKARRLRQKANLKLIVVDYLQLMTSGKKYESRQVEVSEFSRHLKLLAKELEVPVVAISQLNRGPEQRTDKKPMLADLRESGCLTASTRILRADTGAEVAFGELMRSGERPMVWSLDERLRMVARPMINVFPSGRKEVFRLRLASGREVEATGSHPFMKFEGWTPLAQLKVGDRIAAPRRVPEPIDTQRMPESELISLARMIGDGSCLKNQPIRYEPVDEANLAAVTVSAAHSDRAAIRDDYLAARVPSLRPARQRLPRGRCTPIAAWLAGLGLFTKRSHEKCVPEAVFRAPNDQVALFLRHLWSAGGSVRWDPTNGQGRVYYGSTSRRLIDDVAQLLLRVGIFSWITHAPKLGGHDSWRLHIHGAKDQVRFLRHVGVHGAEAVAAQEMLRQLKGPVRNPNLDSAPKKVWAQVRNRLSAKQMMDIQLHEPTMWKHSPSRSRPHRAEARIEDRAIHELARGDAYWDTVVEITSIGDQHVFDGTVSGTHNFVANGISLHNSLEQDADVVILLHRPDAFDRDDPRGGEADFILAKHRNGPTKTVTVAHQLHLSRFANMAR
# [5] = test system: Vero; assay: cells; type: functional; conditions: Chlorocebus sabaeus
# [6] = biological target: T3, Mitochondrial peptide methionine sulfoxide reductase (Bos taurus, UniProt P54149); assay: Absorbance-based biochemical high throughput dose response assay for activators of Methionine sulfoxide reductase A (MsrA).; type: functional
# T3 sequence (P54149 whole entry): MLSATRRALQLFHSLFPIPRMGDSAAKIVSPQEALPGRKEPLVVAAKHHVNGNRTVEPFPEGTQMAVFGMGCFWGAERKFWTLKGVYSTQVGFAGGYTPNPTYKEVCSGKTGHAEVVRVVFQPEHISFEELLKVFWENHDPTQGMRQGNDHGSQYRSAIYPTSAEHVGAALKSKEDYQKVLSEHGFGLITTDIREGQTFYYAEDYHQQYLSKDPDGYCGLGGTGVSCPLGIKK
# [7] = biological target: T4, DNA repair and recombination protein RAD54-like (Homo sapiens, UniProt Q92698); assay: RAD54 Holliday junction migration blockers – biochemical, fluorescence, cherry-picked samples, dose series, confirmation (AID 651657); type: functional
# T4 sequence (Q92698 whole entry): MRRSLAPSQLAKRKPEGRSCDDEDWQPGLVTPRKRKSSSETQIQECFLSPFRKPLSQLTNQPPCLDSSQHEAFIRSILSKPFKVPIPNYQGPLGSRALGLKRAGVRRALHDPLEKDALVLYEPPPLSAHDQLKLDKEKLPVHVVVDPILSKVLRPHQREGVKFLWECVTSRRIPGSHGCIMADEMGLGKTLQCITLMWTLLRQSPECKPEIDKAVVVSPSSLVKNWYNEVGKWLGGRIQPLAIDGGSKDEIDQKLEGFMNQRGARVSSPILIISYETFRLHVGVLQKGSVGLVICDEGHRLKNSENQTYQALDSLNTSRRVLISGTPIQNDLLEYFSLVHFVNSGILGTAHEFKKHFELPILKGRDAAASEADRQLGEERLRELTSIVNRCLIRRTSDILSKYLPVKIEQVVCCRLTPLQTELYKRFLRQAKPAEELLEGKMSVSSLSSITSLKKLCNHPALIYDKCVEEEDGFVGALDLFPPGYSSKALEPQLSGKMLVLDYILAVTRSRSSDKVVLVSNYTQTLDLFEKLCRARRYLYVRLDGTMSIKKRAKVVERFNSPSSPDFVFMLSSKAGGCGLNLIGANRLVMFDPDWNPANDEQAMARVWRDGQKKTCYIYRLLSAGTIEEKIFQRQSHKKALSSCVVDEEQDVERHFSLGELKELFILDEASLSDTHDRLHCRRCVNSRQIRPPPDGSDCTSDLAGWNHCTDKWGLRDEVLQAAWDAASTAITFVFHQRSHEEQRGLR
# [8] = test system: BJ; assay: BJ-TERT fibroblast viability loss – cell-based, RAS-independent, luminescence, dose response (AID 1933); type: functional; conditions: Homo sapiens
# [9] = test system: BJ; assay: cells; type: functional, cell-based; conditions: Homo sapiens
# [10] = DRD fibroblast viability loss – cell-based, non-viral oncogenic, luminescence, dose response (AID 1934); type: functional; conditions: Homo sapiens
# [11] = non-specific 3'UTR reporter inhibition in Clone20-Shn3RL – cell-based, Renilla luciferase, cherry-picked, counter-screen for Shn3 inhibitor project, dose response (AID 624133); type: functional
# [12] = reduction of Shn3 3'UTR-driven luciferase in osteoblasts – cell-based, Clone20 osteoblasts, firefly luciferase, cherry-picked, dose response (AID 624132); type: functional;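 note: firefly luciferase luminescence from reporter carrying the Shn3 3'UTR in osteoblasts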
# [13] = viability loss in HEK293 cells – cell-based, plate reader, cherry-picked samples, cytotoxicity control, dose response (AID 743446); type: functional
# [14] = fluconazole-exposed Candida albicans growth modulators – fluorescence, retest, confirmation (AID 2467); type: functional, cell-based
# [15] = A549 cell cytotoxicity, dose response, cytotoxicity control, plate reader, cherry-pick, antagonist series (AID 743412); type: functional, cell-based
# [16] = test system: BJ; assay: BJ-TERT-LT-ST fibroblast viability loss – cell-based, RAS-independent, luminescence, dose response (AID 1935); type: functional; conditions: Homo sapiens;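 note: BJ fibroblasts immortalized with TERT plus LT and ST oncogenes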
# [17] = biological target: T5, Microphthalmia-associated transcription factor (Homo sapiens, UniProt O75030); assay: reducers of TRPM1 reporter luminescence, concentration series – cell-based, SK-MEL-5, cherry-picked, set 3, MITF inhibitor project, dose response (AID 493073); type: functional;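 note: SK-MEL-5 melanoma cells with luciferase driven by the MITF target TRPM1 promoter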
# T5 sequence (O75030 whole entry): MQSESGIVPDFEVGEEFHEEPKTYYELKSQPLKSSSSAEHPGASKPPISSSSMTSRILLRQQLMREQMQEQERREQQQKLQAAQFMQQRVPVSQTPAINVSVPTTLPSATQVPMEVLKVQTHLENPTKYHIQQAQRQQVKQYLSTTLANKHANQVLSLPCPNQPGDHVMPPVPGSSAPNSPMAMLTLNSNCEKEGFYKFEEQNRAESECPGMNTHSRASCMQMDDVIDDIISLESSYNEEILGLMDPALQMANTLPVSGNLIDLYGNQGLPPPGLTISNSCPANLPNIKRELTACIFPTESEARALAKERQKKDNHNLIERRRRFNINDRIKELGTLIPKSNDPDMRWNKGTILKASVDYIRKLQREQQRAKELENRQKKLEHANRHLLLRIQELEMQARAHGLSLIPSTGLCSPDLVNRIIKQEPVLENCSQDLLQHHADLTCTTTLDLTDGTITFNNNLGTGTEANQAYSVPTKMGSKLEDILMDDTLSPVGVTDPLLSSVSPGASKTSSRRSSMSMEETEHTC
# [18] = HEK-293T viability loss after treatment – luminescence, T-cell screen hits, cytotoxicity control for TCR NF-kB inhibitor project, dose response (AID 489026); type: functional, cell-based;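 note: cells exposed to compound about 14 hours before the viability readout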
# [19] = test system: BJ; assay: growth inhibition of engineered Ras-driven BJ cells – cell-based, alamar blue fluorescence, cherrypicked samples, dose response (AID 2631); type: functional; conditions: Homo sapiens;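 note: confirmatory dose-response assay in RAS-dependent BJ fibroblasts engineered with TERT, LT and ST, with cytotoxicity read by fluorescence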
# [20] = loss of viability in HepG2 cells – cell-based, CellTiter-Glo, cherry-picked, cytotoxicity control for Shn3 inhibitor project, dose response (AID 624134); type: functional
# [21] = NIH-3T3 fibroblast cytotoxicity, dose response, cytotoxicity control, cell-based, fluorescence, Alamar Blue, secondary assay (AID 2327); type: functional;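 note: NIH-3T3 mouse fibroblasts cultured with fluconazole at 8 µg/mL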
# [22] = toxicity toward HepG2 liver cells – cell-based, plate reader, cherry-pick, antagonist series, cytotoxicity control, dose response (AID 743416); type: functional
smiles,measurement,setting,value
C=CCSC(=C(C#N)C#N)c1cc2c([nH]1)CCCC2,AC50,[1],6.73 µM (active)
same,IC50,[2],> 25 µM (active)
same,EC50,[3],6.29 µM (active)
same,AC50,[4],> 380 µM (inactive)
same,CC50,[5],10.5 µM (active)
Cc1cc(S)nc(S)n1,EC50,[6],> 104 µM (inactive)
CCOC(=O)c1c(C)n(C)c2ccc(OCC(O)CN3CCC(C)CC3)cc12 (configuration not stated),AC50,[7],56.3 µM (active)
O=c1c2ccccc2nc(/C=C/c2ccc([N+](=O)[O-])o2)n1-c1ccc(O)cc1,EC50,[8],4.33 µM (active)
same,EC50,[9],3.48 µM (inconclusive)
same,EC50,[10],2.97 µM (active)
same,AC50,[11],4.9 µM (active)
same,AC50,[12],3.24 µM (active)
same,AC50,[13],4.16 µM (active)
same,EC50,[14],0.165 µM (active)
same,AC50,[15],4.35 µM (active)
same,EC50,[16],3.08 µM (inconclusive)
same,AC50,[17],4.45 µM (active)
same,IC50,[18],> 80 µM (inactive)
same,EC50,[19],7.06 µM (active)
same,AC50,[20],5.99 µM (active)
same,EC50,[21],3.91 µM (inconclusive)
same,AC50,[22],4.17 µM (active)
NS(=O)(=O)c1ccc(NC(=O)c2cc(-c3cccs3)nc3ccccc23)cc1,EC50,[8],14.1 µM (active)
same,EC50,[9],83.1 µM (active)
same,EC50,[10],10.8 µM (active)
same,EC50,[16],> 75 µM (inconclusive)
same,EC50,[19],> 133 µM (inactive)
